This passage reports DC50 and Dmax results from US11427548B2 (Arvinas Operations, Inc., priority 2015, dated 2022).

Test [1] addresses T1, Androgen Receptor (Homo sapiens, UniProt P10275+P40337, T878A).
T1 construct: Compounds have been evaluated in this assay in LNCaP and/or VCaP cells utilizing similar protocols; endogenous in cells; host or cells: LNCaP cells
In words: Androgen Receptor ELISA assay (PathScan AR ELISA) in LNCaP cells: AR degradation, Dmax and DC50. In kind it is cell-based. The following applies: for DC50: concentration that caused 50% Androgen Receptor degradation; for Dmax: highest percentage of Androgen Receptor degradation observed. A general note: In an ELISA, binding on a coated surface is turned into a signal by an enzyme label.

In test [2] the target is T2, Androgen Receptor (Homo sapiens, UniProt P10275).
T2 construct: endogenous in cells; host or cells: VCaP cells
T2 sequence (P10275 1-920): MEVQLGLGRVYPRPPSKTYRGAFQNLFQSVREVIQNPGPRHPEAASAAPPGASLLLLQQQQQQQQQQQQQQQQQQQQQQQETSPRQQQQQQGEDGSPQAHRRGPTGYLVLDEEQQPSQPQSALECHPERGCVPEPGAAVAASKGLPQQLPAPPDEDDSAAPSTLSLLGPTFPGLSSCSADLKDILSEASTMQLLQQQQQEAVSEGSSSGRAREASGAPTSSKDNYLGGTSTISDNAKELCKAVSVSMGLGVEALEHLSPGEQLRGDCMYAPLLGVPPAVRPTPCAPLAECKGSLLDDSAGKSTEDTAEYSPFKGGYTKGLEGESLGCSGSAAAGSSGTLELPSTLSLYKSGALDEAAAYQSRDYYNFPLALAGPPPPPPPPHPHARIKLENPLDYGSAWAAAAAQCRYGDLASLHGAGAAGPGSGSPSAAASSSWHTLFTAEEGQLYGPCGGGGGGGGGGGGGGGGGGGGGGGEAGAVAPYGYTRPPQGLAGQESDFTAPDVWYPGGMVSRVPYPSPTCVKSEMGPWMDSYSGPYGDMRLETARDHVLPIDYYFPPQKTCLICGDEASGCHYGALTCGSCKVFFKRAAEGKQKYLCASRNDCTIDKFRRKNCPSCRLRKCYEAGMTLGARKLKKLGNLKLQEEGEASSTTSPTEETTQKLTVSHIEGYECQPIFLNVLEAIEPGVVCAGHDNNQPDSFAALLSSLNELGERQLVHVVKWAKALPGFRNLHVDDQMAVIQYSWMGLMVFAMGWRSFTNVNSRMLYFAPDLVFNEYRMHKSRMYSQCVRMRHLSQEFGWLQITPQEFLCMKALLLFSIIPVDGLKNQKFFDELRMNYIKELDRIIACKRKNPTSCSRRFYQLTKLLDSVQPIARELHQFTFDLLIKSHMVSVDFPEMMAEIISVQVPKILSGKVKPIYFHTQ
In words: Androgen Receptor ELISA assay (PathScan AR ELISA) in VCaP cells: AR degradation, Dmax and DC50. Type of test: cell-based. The note with it: for Dmax: VCaP, read-out: VCaP Dmax (%); for DC50: read-out: VCaP DC50, concentration that caused 50% Androgen Receptor degradation, VCaP cells. The essentials: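 After 24 h exposure of VCaP cells (charcoal-stripped serum, 0.1 nM R1881 agonist, 0.1% DMSO) to seven half-log compound concentrations, residual AR in lysates was measured by PathScan ELISA (TMB absorbance, 450 nm). Cells were plated at 30,000/well and grown at least 3 days beforehand.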

T1 sequence (P10275 whole entry T878A): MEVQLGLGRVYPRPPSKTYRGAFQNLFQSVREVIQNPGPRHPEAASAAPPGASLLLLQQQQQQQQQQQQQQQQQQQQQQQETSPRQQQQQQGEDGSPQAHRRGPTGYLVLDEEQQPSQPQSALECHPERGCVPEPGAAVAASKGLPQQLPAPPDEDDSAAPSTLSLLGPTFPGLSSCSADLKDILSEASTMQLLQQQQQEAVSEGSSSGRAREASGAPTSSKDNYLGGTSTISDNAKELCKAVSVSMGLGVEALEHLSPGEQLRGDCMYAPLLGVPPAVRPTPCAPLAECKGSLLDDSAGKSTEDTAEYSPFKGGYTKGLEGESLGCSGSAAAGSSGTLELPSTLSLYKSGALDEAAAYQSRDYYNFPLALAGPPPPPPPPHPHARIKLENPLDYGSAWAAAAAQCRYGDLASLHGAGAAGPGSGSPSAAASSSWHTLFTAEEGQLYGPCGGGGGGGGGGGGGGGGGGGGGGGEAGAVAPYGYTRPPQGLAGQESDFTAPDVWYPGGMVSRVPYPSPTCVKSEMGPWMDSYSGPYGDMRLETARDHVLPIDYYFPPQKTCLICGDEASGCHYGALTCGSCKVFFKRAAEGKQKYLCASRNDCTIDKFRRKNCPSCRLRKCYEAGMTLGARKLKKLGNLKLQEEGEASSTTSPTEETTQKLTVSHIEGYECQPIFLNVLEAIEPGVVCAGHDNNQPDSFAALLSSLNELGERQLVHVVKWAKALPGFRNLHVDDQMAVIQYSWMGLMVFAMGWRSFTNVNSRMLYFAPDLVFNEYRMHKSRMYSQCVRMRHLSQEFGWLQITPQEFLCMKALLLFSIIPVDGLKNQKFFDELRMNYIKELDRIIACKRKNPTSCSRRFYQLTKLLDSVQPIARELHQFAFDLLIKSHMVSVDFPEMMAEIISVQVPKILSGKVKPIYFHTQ
T1 sequence (P40337 whole entry): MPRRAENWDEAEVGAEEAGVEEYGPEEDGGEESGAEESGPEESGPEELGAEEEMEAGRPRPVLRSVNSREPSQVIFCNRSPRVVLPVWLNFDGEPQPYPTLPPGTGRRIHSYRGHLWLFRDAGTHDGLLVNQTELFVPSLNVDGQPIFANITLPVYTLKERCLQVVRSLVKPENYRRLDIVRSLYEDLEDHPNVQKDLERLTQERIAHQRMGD
T1 sequence (Q15369 whole entry partner): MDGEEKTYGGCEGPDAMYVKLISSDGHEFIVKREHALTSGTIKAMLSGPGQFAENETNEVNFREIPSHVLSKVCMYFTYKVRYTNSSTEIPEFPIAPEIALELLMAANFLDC
T1 sequence (Q15370 whole entry partner): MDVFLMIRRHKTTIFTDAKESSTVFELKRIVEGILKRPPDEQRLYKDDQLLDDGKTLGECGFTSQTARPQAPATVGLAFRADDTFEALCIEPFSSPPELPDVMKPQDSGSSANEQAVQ

With `Cc1ncsc1-c1ccc(CNC(=O)[C@@H]2C[C@@H](O)CN2C(=O)[C@@H](NC(=O)CCCCOc2ccc(-c3ccc(N4C(=S)N(c5ccc(C#N)c(C(F)(F)F)c5)C(=O)C4(C)C)cc3)cc2)C(C)(C)C)cc1` [Example 69, (2S,4R)-1-[(2S)-2-{5-[4-(4-{3-[4-cyano-3-(trifluoromethyl)phenyl]-5,5-dimethyl-4-oxo-2-sulfanylideneimidazolidin-1-yl}phenyl)phenoxy]pentanamido}-3,3-dimethylbutanoyl]-4-hydroxy-N-{[4-(4-methyl-1,3-thiazol-5-yl)phenyl]methyl}pyrrolidine-2-carboxamide], at Androgen Receptor [1], the DC50 was in the range of 51 to 500 nM and the greatest degradation seen (Dmax) is greater than 71%. Also, on Androgen Receptor [2], the Dmax was in the range of 26 to 50% and the DC50 lay in the range of 51 to 500 nM.

For `Cc1ncsc1-c1ccc(CNC(=O)[C@@H]2C[C@@H](O)CN2C(=O)[C@@H](NC(=O)CCOCCOc2ccc(-c3ccc(N4C(=S)N(c5ccc(C#N)c(C(F)(F)F)c5)C(=O)C4(C)C)cc3)cc2)C(C)(C)C)cc1` [Example 70, (2S,4R)-1-[(2S)-2-(3-{2-[4-(4-{3-[4-cyano-3-(trifluoromethyl)phenyl]-5,5-dimethyl-4-oxo-2-sulfanylideneimidazolidin-1-yl}phenyl)phenoxy]ethoxy}propanamido)-3,3-dimethylbutanoyl]-4-hydroxy-N-{[4-(4-methyl-1,3-thiazol-5-yl)phenyl]methyl}pyrrolidine-2-carboxamide], on Androgen Receptor [1], the 50% degradation concentration (DC50) is less than 50 nM and the Dmax was greater than 71%. Besides, on Androgen Receptor [2], the Dmax was in the range of 26 to 50% and the DC50 is less than 50 nM.

On to `Cc1ncsc1-c1ccc(CNC(=O)[C@@H]2C[C@@H](O)CN2C(=O)[C@@H](NC(=O)COCCCCCOc2ccc(-c3ccc(N4C(=S)N(c5ccc(C#N)c(C(F)(F)F)c5)C(=O)C4(C)C)cc3)cc2)C(C)(C)C)cc1` [Example 71, (2S,4R)-1-[(2S)-2-[2-({5-[4-(4-{3-[4-cyano-3-(trifluoromethyl)phenyl]-5,5-dimethyl-4-oxo-2-sulfanylideneimidazolidin-1-yl}phenyl)phenoxy]pentyl}oxy)acetamido]-3,3-dimethylbutanoyl]-4-hydroxy-N-{[4-(4-methyl-1,3-thiazol-5-yl)phenyl]methyl}pyrrolidine-2-carboxamide], for which, on Androgen Receptor [1], the DC50 is less than 50 nM and the Dmax was greater than 71%. In addition, at Androgen Receptor [2], the Dmax fell in the range of 51 to 70% and the DC50 is less than 50 nM.

`Cc1ncsc1-c1ccc(CNC(=O)[C@@H]2C[C@@H](O)CN2C(=O)[C@@H](NC(=O)COCCOCCOc2ccc(-c3ccc(N4C(=S)N(c5ccc(C#N)c(C(F)(F)F)c5)C(=O)C4(C)C)cc3F)cc2)C(C)(C)C)cc1` [Example 73, (2S,4R)-1-[(2S)-2-[2-(2-{2-[4-(4-{3-[4-cyano-3-(trifluoromethyl)phenyl]-5,5-dimethyl-4-oxo-2-sulfanylideneimidazolidin-1-yl}-2-fluorophenyl)phenoxy]ethoxy}ethoxy)acetamido]-3,3-dimethylbutanoyl]-4-hydroxy-N-{[4-(4-methyl-1,3-thiazol-5-yl)phenyl]methyl}pyrrolidine-2-carboxamide]: at Androgen Receptor [1], the DC50 was less than 50 nM and the Dmax was greater than 71%. Besides, on Androgen Receptor [2], the Dmax is 51 to 70% and the DC50 was less than 50 nM.

With `Cc1ncsc1-c1ccc(CNC(=O)[C@@H]2C[C@@H](O)CN2C(=O)[C@@H](NC(=O)OCCCCCOc2ccc(-c3ccc(N4C(=S)N(c5ccc(C#N)c(C(F)(F)F)c5)C(=O)C4(C)C)cc3)cc2)C(C)(C)C)cc1` [Example 74, 5-[4-(4-{3-[4-cyano-3-(trifluoromethyl)phenyl]-5,5-dimethyl-4-oxo-2-sulfanylideneimidazolidin-1-yl}phenyl)phenoxy]pentyl N-[(2S)-1-[(2S,4R)-4-hydroxy-2-({[4-(4-methyl-1,3-thiazol-5-yl)phenyl]methyl}carbamoyl)pyrrolidin-1-yl]-3,3-dimethyl-1-oxobutan-2-yl]carbamate], the DC50 on Androgen Receptor [1] and at Androgen Receptor [2] was less than 50 nM each time. Also, the Dmax at Androgen Receptor [1] is greater than 71%; on Androgen Receptor [2], 26 to 50%.

By DC50 is commonly meant the concentration at which degradation of the target reaches its halfway point. The term Dmax denotes the greatest extent of degradation seen.
